According to ChEMBL document CHEMBL1140507, “Synthesis and evaluation of N-acylsulfonamide and N-acylsulfonylurea prodrugs of a prostacyclin receptor agonist” (Bioorg Med Chem, 2007):

Columns and labels:
Liver microsomes [1] = test: Hydrolytic rate in human hepatic microsomes assessed as 2-(4-((5,6-diphenylpyrazin-2-yl)(isopropyl)amino)butoxy)acetic acid production per mg of protein at 10 uM; assay type: ADME, Microsome
[2] = Hydrolytic rate in cynomolgus monkey hepatic microsomes assessed as 2-(4-((5,6-diphenylpyrazin-2-yl)(isopropyl)amino)butoxy)acetic acid production per mg of protein at 10 uM; assay type: ADME, Macaca fascicularis, Liver
Cynomolgus monkey [3] = test: Half life in cynomolgus monkey assessed as 2-(4-((5,6-diphenylpyrazin-2-yl)(isopropyl)amino)butoxy)acetic acid at 1 mg/kg, po; assay type: ADME, organism-based, Macaca fascicularis; design: dose 1 mg/kg, route oral; settings: in vivo
Cynomolgus monkey [4] = test: Tmax in cynomolgus monkey assessed as 2-(4-((5,6-diphenylpyrazin-2-yl)(isopropyl)amino)butoxy)acetic acid level at 1 mg/kg, po; assay type: ADME, organism-based, Macaca fascicularis; design: dose 1 mg/kg, route oral; settings: in vivo
Cynomolgus monkey [5] = test: Cmax in cynomolgus monkey assessed as 2-(4-((5,6-diphenylpyrazin-2-yl)(isopropyl)amino)butoxy)acetic acid level at 1 mg/kg, po; assay type: ADME, organism-based, Macaca fascicularis; design: dose 1 mg/kg, route oral; settings: in vivo
Cynomolgus monkey [6] = test: AUC (0 to 24 hrs) in cynomolgus monkey assessed as 2-(4-((5,6-diphenylpyrazin-2-yl)(isopropyl)amino)butoxy)acetic acid at 1 mg/kg, po; assay type: ADME, organism-based, Macaca fascicularis, Plasma; design: time < 24 hr, dose 1 mg/kg, route oral; settings: in vivo
Plasma = test: Hydrolytic rate in Sprague-Dawley rat plasma assessed as 2-(4-((5,6-diphenylpyrazin-2-yl)(isopropyl)amino)butoxy)acetic acid production per mg of protein at 10 uM; assay type: ADME, cell-free
[7] = Hydrolytic rate in cynomolgus monkey hepatic microsomes assessed as 2-(4-((5,6-diphenylpyrazin-2-yl)(isopropyl)amino)butoxy)acetic acid production in presence of 1000 uM PMSF relative to control; assay type: ADME, Macaca fascicularis, Liver; design: scale not given: the % may be the effect or the level left
[8] = Hydrolytic rate in cynomolgus monkey hepatic microsomes assessed as 2-(4-((5,6-diphenylpyrazin-2-yl)(isopropyl)amino)butoxy)acetic acid production in presence of 10 uM PMSF relative to control; assay type: ADME, Macaca fascicularis, Liver; design: scale not given: the % may be the effect or the level left
[9] = Hydrolytic rate in cynomolgus monkey hepatic microsomes assessed as 2-(4-((5,6-diphenylpyrazin-2-yl)(isopropyl)amino)butoxy)acetic acid production in presence of 100 uM PMSF relative to control; assay type: ADME, Macaca fascicularis, Liver; design: scale not given: the % may be the effect or the level left
[10] = Hydrolytic rate in Beagle dog hepatic microsomes assessed as 2-(4-((5,6-diphenylpyrazin-2-yl)(isopropyl)amino)butoxy)acetic acid production per mg of protein at 10 uM; assay type: ADME, Canis lupus familiaris, Liver
Liver microsomes [11] = test: Hydrolytic rate in Sprague-Dawley rat hepatic microsomes assessed as 2-(4-((5,6-diphenylpyrazin-2-yl)(isopropyl)amino)butoxy)acetic acid production per mg of protein at 10 uM; assay type: ADME, Microsome

CC(C)N(CCCCOCC(=O)NS(=O)(=O)c1cccs1)c1cnc(-c2ccccc2)c(-c2ccccc2)n1
Activity (Liver microsomes [1]): 0.008 nmol/min | Activity [2]: 0.468 nmol/min

CC(C)N(CCCCOCC(=O)NS(=O)(=O)c1ccccc1)c1cnc(-c2ccccc2)c(-c2ccccc2)n1
Activity (Liver microsomes [1]): 0.017 nmol/min | Activity [2]: 0.711 nmol/min

CC(C)N(CCCCOCC(=O)NS(=O)(=O)C(C)C)c1cnc(-c2ccccc2)c(-c2ccccc2)n1
Activity (Liver microsomes [1]): 0.012 nmol/min | t1/2 (Cynomolgus monkey [3]): 14.5 h | Activity [2]: 0.152 nmol/min | Tmax (Cynomolgus monkey [4]): 10 h | Cmax (Cynomolgus monkey [5]): 13 ng/mL | AUC (Cynomolgus monkey [6]): 170 ng·h/mL

CC(C)N(CCCCOCC(=O)NS(=O)(=O)N1CCOCC1)c1cnc(-c2ccccc2)c(-c2ccccc2)n1
Activity (Liver microsomes [1]): 0.015 nmol/min | Activity [2]: 0.208 nmol/min

CC(C)N(CCCCOCC(=O)NS(C)(=O)=O)c1cnc(-c2ccccc2)c(-c2ccccc2)n1 [SELEXIPAG]
Activity (Liver microsomes [1]): 0.019 nmol/min | t1/2 (Cynomolgus monkey [3]): 10.7 h | Activity (Plasma): 0.5 nmol/min | Activity [7]: 0% | Activity [8]: 21.4% | Activity [9]: 0% | Activity [2]: 0.057 nmol/min | Tmax (Cynomolgus monkey [4]): 14 h | Activity [10]: 0.03 nmol/min | Cmax (Cynomolgus monkey [5]): 35 ng/mL | AUC (Cynomolgus monkey [6]): 859 ng·h/mL | Activity (Liver microsomes [11]): 0.09 nmol/min

CC(C)N(CCCCOCC(=O)NS(=O)(=O)C(F)(F)F)c1cnc(-c2ccccc2)c(-c2ccccc2)n1
Activity (Liver microsomes [1]): 0.024 nmol/min | t1/2 (Cynomolgus monkey [3]): 8.5 h | Activity [2]: 0.06 nmol/min | Tmax (Cynomolgus monkey [4]): 4 h | Cmax (Cynomolgus monkey [5]): 31 ng/mL | AUC (Cynomolgus monkey [6]): 308 ng·h/mL

CC(C)N(CCCCOCC(=O)NS(N)(=O)=O)c1cnc(-c2ccccc2)c(-c2ccccc2)n1
Activity (Liver microsomes [1]): 0.03 nmol/min | Activity [2]: 0.112 nmol/min | Tmax (Cynomolgus monkey [4]): 6 h | Cmax (Cynomolgus monkey [5]): 20 ng/mL | AUC (Cynomolgus monkey [6]): 374 ng·h/mL
